# Test results: paper PMC5359555, “Mechanistic and structural basis of bioengineered bovine Cathelicidin-5 with optimized therapeutic activity” (Scientific Reports, 2017)
# Several values for one entry are separate records, joined by “and”; a condition that tells them apart may be missing. Equal values may be shown once. Where a SMILES comes first, the peptide text is derived from it.
# Key:
# [1] = not given; remark: listed apart in the source
# [2] = not given; remark: listed apart in the source
# [3] = test system: Plasmodium falciparum strain 3D7; experiment: microbe, parasite or virus in culture; format: cell-based; conditions: for antimalarial activity (in words): at 10 and 30 μM
# Description: Plasmodium falciparum strain 3D7 was cultured in RPMI-1640 supplemented with 25 mg/l L-Glutamine; HEPES, NaHCO3; 50 mg/l Hypoxanthin; Gentamicien; 10% human serum; and RBCs at 3% hematocrit in an atmosphere of 5% CO2, 5% O2, and 90% N2 at 37°C as previously described. The Plasmodium lactate dehydrogenase (pLDH) assay was performed to measure the parasitic growth inhibition as described elsewhere[49] with BMAP-28 and its analogues treatment. In brief, malstat reagent was added to a 96-well plate (100 μL in each well). A Plasmodium infected RBC mixture of 20 μL in each well was mixed thoroughly using a plate shaker. And then 10 μL of each 1 mg/ml diaphorase and Nitroblue tetrozolium (NBT) were added to each well. The solution in the 96-well plate was mixed properly until a brown color appears and the absorbance was measured at 650 nm under a plate reader (PowerWaveHT, BioTek Instruments, USA). The hemolytic assay was carried out as described earlier. Briefly, RBCs prepared from fresh blood (Hematocrit ~5%) were incubated for 1 h at 37 °C after addition of test peptides. Relative hemoglobin concentration in supernatants after centrifugation at 2000× g for 5 min was monitored by measuring the absorbance at 540 nm by the plate reader (PowerWaveHT, BioTek Instruments, USA). As positive control, 100% hemolysis was taken from samples in which 2% Triton X-100 was added.
# B16-F1 melanoma cells = experiment: MTT cell-viability assay, B16-F1 melanoma; format: cell-based, mouse
# Description: (§1) The T-cell lymphoma (Jurkat) and B-cell lymphoma (Ramos) were cultured using RPMI-1640 medium supplemented with 10% fetal calf serum (FCS), 100 U ml^−1 penicillin and 100 μg ml^−1 streptomycin. An initial cell densities of 5 × 10^3 cells/well was uniformly maintained in a 96 well plate. The B16-F1 melanoma cells were grown in DMEM medium containing 10% FCS, 100 U ml^−1 penicillin and 100 μg ml^−1 streptomycin and 55 μM 2-mercaptoethanol. The cells were trypsinized and plated in a 96-well plate at a density of 5 × 10^3 cells/well. The cells were grown overnight at 37 °C using a 5% CO2 incubator. The cells were treated with different peptide concentration followed by cell proliferation assay. The MTT assay kit (Cayman chemicals, USA) was used to measure the cell viability at a peptide concentration varying from 2 to 15 μM (in triplicate). Fresh culture medium and cells in medium without peptide were considered as negative and positive controls for viability assay and was monitored at 24, 48 and 72 h. The Cayman MTT cell proliferation assay protocol was followed, and the absorbance were recorded at 570 nm using a microplate reader (PowerWaveHT, BioTek Instruments, USA).
# B-cell lymphoma (Ramos) = format: cell-based; conditions: at a concentration higher than 30 μM
# Description: as §1, with “The MTT assay kit (Cayman chemicals, USA) was used to measure the cell viability at a peptide concentration varying from 2 to 15 μM (in triplicate).” left out
# [4] = test system: Gram-positive and Gram-negative strains (E. coli BL21, Bacillus subtilis, Staphylococcus epidermis); format: cell-based; conditions: even at one order higher concentration than MIC ~2 μM
# Description: The Escherichia coli strains BL21 and DH5α were obtained from Novagen and Takara Clontech, respectively. The Bacillus subtilis (3009) and Staphylococcus epidermis (12993) were purchased from NITE Biological Resource Center (NBRC, Japan). The bacterial growth procedures followed in this study were described elsewhere. The mid-log phase microbial growth (~4 × 10^7 cells/mL, 5 μL) was used for growth assay in a 96-well plate (5 replicates) at a variable peptide concentration incubated at 37 °C for 12–48 h.
Compound,anticancer activity (in words) (B-cell lymphoma (Ramos)),antimalarial activity (in words) [3],antimicrobial activity (in words) [4],further results
CC[C@H](C)[C@H](NC(=O)[C@H](CCCNC(=N)N)NC(=O)[C@@H](NC(=O)[C@@H](NC(=O)[C@@H]1CCCN1C(=O)[C@@H](NC(=O)[C@@H](NC(=O)[C@@H](NC(=O)[C@@H]1CCCN1C(=O)CNC(=O)[C@H](Cc1ccc(O)cc1)NC(=O)[C@H](CCCCN)NC(=O)[C@H](CCCCN)NC(=O)[C@H](Cc1c[nH]c2ccccc12)NC(=O)[C@H](C)NC(=O)[C@H](CCCNC(=N)N)NC(=O)[C@H](CC(C)C)NC(=O)[C@@H](NC(=O)[C@H](CCCCN)NC(=O)[C@H](CCCNC(=N)N)NC(=O)CNC(=O)[C@H](CC(C)C)NC(=O)[C@H](CO)NC(=O)[C@H](CCCNC(=N)N)NC(=O)[C@H](CC(C)C)NC(=O)CNC(=O)CN)[C@@H](C)CC)[C@@H](C)CC)[C@@H](C)CC)C(C)C)[C@@H](C)CC)[C@@H](C)CC)C(=O)NCC(=O)O (H-GGLRSLGRKILRAWKKYGPIIVPIIRIG-OH),,,,β-sheet content: 7.1% and 25.3% and 7.5%; β content [1]: 14.3% and 21.5%; α content [2]: 11.1% and 11.9%
"C[C@@H]1CC[C@H]2[C@@H](C)C(=O)O[C@@H]3O[C@@]4(C)CC[C@@H]1[C@]32OO4 [Art, artemisinin, reference compound]",,,,"inhibition at 5 µM ([3]; Plasmodium falciparum, 3D7, 5 μM, positive control, pLDH assay, read-out: growth inhibition (%) of P. falciparum): 100%"
CC[C@H](C)[C@H](NC(=O)[C@H](CCCCN)NC(=O)[C@H](CCCNC(=N)N)NC(=O)CNC(=O)[C@H](CC(C)C)NC(=O)[C@H](CO)NC(=O)[C@H](CCCNC(=N)N)NC(=O)[C@H](CC(C)C)NC(=O)CNC(=O)CN)C(=O)N[C@@H](CC(C)C)C(=O)N[C@@H](CCCNC(=N)N)C(=O)N[C@@H](C)C(=O)N[C@@H](Cc1c[nH]c2ccccc12)C(=O)N[C@@H](CCCCN)C(=O)N[C@@H](CCCCN)C(=O)N[C@@H](Cc1ccc(O)cc1)C(=O)NCC(N)=O [BMAP-28_1–18] (H-GGLRSLGRKILRAWKKYG-NH2; N-terminus assumed),,,,concentration found to be active (B16-F1 melanoma cells): ~ 30 μM; anticancer activity (in words) (B16-F1 melanoma cells; 10 μM): fairly low anticancer activity
CC(C)C[C@H](NC(=O)CNC(=O)CN)C(=O)N[C@@H](CCCNC(=N)N)C(=O)N[C@@H](CO)C(=O)N[C@@H](CC(C)C)C(=O)NCC(=O)N[C@@H](CCCNC(=N)N)C(=O)N[C@@H](CCCCN)C(=O)N[C@@H](C)C(=O)N[C@@H](C)C(=O)N[C@@H](CCCNC(=N)N)C(=O)N[C@@H](C)C(=O)N[C@@H](Cc1c[nH]c2ccccc12)C(=O)N[C@@H](CCCCN)C(=O)N[C@@H](CCCCN)C(=O)N[C@@H](Cc1ccc(O)cc1)C(=O)NCC(N)=O [Syn2] (H-GGLRSLGRKAARAWKKYG-NH2; N-terminus assumed),loss-of activity,very low potentiality,loss of activity,
CC[C@H](C)[C@H](NC(=O)[C@H](CCCCN)NC(=O)[C@H](CCCNC(=N)N)NC(=O)CN)C(=O)N[C@@H](CC(C)C)C(=O)N[C@@H](CCCNC(=N)N)C(=O)N[C@@H](C)C(=O)N[C@@H](Cc1c[nH]c2ccccc12)C(=O)N[C@@H](CCCCN)C(=O)N[C@@H](CCCCN)C(=O)N[C@@H](Cc1ccc(O)cc1)C(=O)NCC(N)=O [Syn3] (H-GRKILRAWKKYG-NH2; N-terminus assumed),loss-of activity,very low potentiality,loss of activity,
